Measurements published in the NIST ThermoML archive (doi:10.1021/je050175u).
Values joined by “and” are separate entries in the source; they are usually repeats but may differ in a detail not shown here. Identical values can stand only once. ± gives the expanded uncertainty stated by the source.

Experiment: excess molar enthalpy (molar enthalpy of mixing); xn = mol fraction of the nth substance listed
Conditions: Liquid, Flow calorimetry

CC(C)CO [2-methyl-1-propanol] + COC(C)=O
Conditions	excess molar enthalpy
298.15 K, 5000 kPa, x2 = 0.303	0.341 ± 0.00359 kcal/mol
298.15 K, 5000 kPa, x2 = 0.352	0.368 ± 0.00406 kcal/mol
298.15 K, 5000 kPa, x2 = 0.402	0.388 ± 0.00406 kcal/mol
298.15 K, 5000 kPa, x2 = 0.453	0.401 ± 0.0043 kcal/mol
298.15 K, 5000 kPa, x2 = 0.504	0.405 ± 0.0043 kcal/mol
298.15 K, 5000 kPa, x2 = 0.553	0.402 ± 0.0043 kcal/mol
298.15 K, 5000 kPa, x2 = 0.603	0.392 ± 0.00406 kcal/mol
298.15 K, 5000 kPa, x2 = 0.654	0.374 ± 0.00406 kcal/mol
298.15 K, 5000 kPa, x2 = 0.702	0.347 ± 0.00359 kcal/mol
298.15 K, 5000 kPa, x2 = 0.751	0.315 ± 0.00335 kcal/mol
298.15 K, 5000 kPa, x2 = 0.801	0.271 ± 0.00287 kcal/mol
298.15 K, 5000 kPa, x2 = 0.851	0.219 ± 0.00239 kcal/mol
298.15 K, 5000 kPa, x2 = 0.902	0.154 ± 0.00182 kcal/mol
298.15 K, 5000 kPa, x2 = 0.951	0.0827 ± 0.00112 kcal/mol
298.15 K, 10000 kPa, x2 = 0.049	0.0751 ± 0.00172 kcal/mol
298.15 K, 10000 kPa, x2 = 0.099	0.146 ± 0.00215 kcal/mol
298.15 K, 10000 kPa, x2 = 0.15	0.208 ± 0.00263 kcal/mol
298.15 K, 10000 kPa, x2 = 0.199	0.259 ± 0.00311 kcal/mol
298.15 K, 10000 kPa, x2 = 0.249	0.303 ± 0.00335 kcal/mol
298.15 K, 10000 kPa, x2 = 0.3	0.339 ± 0.00359 kcal/mol
298.15 K, 10000 kPa, x2 = 0.349	0.366 ± 0.00406 kcal/mol
298.15 K, 10000 kPa, x2 = 0.401	0.388 ± 0.00406 kcal/mol
298.15 K, 10000 kPa, x2 = 0.449	0.4 ± 0.0043 kcal/mol
298.15 K, 10000 kPa, x2 = 0.5	0.404 ± 0.0043 kcal/mol
298.15 K, 10000 kPa, x2 = 0.55	0.402 ± 0.0043 kcal/mol
298.15 K, 10000 kPa, x2 = 0.6	0.392 ± 0.0043 kcal/mol
298.15 K, 10000 kPa, x2 = 0.65	0.374 ± 0.00406 kcal/mol
298.15 K, 10000 kPa, x2 = 0.699	0.349 ± 0.00382 kcal/mol
298.15 K, 10000 kPa, x2 = 0.752	0.313 ± 0.00359 kcal/mol
298.15 K, 10000 kPa, x2 = 0.798	0.272 ± 0.00311 kcal/mol
298.15 K, 10000 kPa, x2 = 0.849	0.218 ± 0.00263 kcal/mol
298.15 K, 10000 kPa, x2 = 0.901	0.154 ± 0.00222 kcal/mol
298.15 K, 10000 kPa, x2 = 0.95	0.081 ± 0.00182 kcal/mol
308.15 K, 10000 kPa, x2 = 0.047	0.0714 ± 0.00177 kcal/mol
308.15 K, 10000 kPa, x2 = 0.098	0.148 ± 0.00225 kcal/mol
308.15 K, 10000 kPa, x2 = 0.146	0.213 ± 0.00263 kcal/mol
308.15 K, 10000 kPa, x2 = 0.193	0.266 ± 0.00311 kcal/mol
308.15 K, 10000 kPa, x2 = 0.243	0.314 ± 0.00359 kcal/mol
308.15 K, 10000 kPa, x2 = 0.291	0.352 ± 0.00382 kcal/mol
308.15 K, 10000 kPa, x2 = 0.343	0.383 ± 0.00406 kcal/mol
308.15 K, 10000 kPa, x2 = 0.39	0.404 ± 0.0043 kcal/mol
308.15 K, 10000 kPa, x2 = 0.492	0.426 kcal/mol and 0.423 kcal/mol
308.15 K, 10000 kPa, x2 = 0.541	0.424 ± 0.00454 kcal/mol
308.15 K, 10000 kPa, x2 = 0.591	0.415 ± 0.0043 kcal/mol
308.15 K, 10000 kPa, x2 = 0.641	0.398 ± 0.0043 kcal/mol
308.15 K, 10000 kPa, x2 = 0.692	0.371 ± 0.00406 kcal/mol
308.15 K, 10000 kPa, x2 = 0.744	0.335 ± 0.00359 kcal/mol
308.15 K, 10000 kPa, x2 = 0.794	0.291 ± 0.00335 kcal/mol
308.15 K, 10000 kPa, x2 = 0.896	0.168 ± 0.00232 kcal/mol
308.15 K, 10000 kPa, x2 = 0.947	0.0912 ± 0.00194 kcal/mol

COC(C)=O [methyl ethanoate] + CC(C)O
excess molar enthalpy [kcal/mol]
Conditions	5000 kPa	10000 kPa
298.15 K, x1 = 0.1	0.133 ± 0.00191	0.132 ± 0.00194
298.15 K, x1 = 0.151	0.19 ± 0.00237	0.19 ± 0.00239
298.15 K, x1 = 0.199	0.235 ± 0.00263	–
298.15 K, x1 = 0.201	–	0.238 ± 0.00287
298.15 K, x1 = 0.249	0.276 ± 0.00311	–
298.15 K, x1 = 0.251	–	0.278 ± 0.00311
298.15 K, x1 = 0.299	0.308 ± 0.00335	–
298.15 K, x1 = 0.301	–	0.31 ± 0.00335
298.15 K, x1 = 0.349	0.334 ± 0.00359	–
298.15 K, x1 = 0.351	–	0.335 ± 0.00359
298.15 K, x1 = 0.4	–	0.354 ± 0.00382
298.15 K, x1 = 0.401	0.355 ± 0.00382	–
298.15 K, x1 = 0.45	0.367 ± 0.00406	0.366 ± 0.00382
298.15 K, x1 = 0.499	0.374 ± 0.00406	–
298.15 K, x1 = 0.501	–	0.372 ± 0.00406
298.15 K, x1 = 0.55	0.374 ± 0.00406	0.371 ± 0.00406
298.15 K, x1 = 0.599	0.367 ± 0.00382	–
298.15 K, x1 = 0.601	–	0.363 ± 0.00382
298.15 K, x1 = 0.649	0.352 ± 0.00382	–
298.15 K, x1 = 0.651	–	0.348 ± 0.00382
298.15 K, x1 = 0.699	–	0.327 ± 0.00359
298.15 K, x1 = 0.7	0.331 ± 0.00359	–
298.15 K, x1 = 0.749	–	0.296 ± 0.00335
298.15 K, x1 = 0.75	0.3 ± 0.00335	–
298.15 K, x1 = 0.799	0.262 ± 0.00287	0.258 ± 0.00287
298.15 K, x1 = 0.851	0.211 ± 0.00234	0.207 ± 0.00263
298.15 K, x1 = 0.9	0.154 ± 0.00177	0.15 ± 0.00217
298.15 K, x1 = 0.949	0.0855 ± 0.0011	0.081 ± 0.00174
308.15 K, x1 = 0.048	–	0.0745 ± 0.00158
308.15 K, x1 = 0.097	–	0.142 ± 0.00208
308.15 K, x1 = 0.145	–	0.199 ± 0.00239
308.15 K, x1 = 0.195	–	0.251 ± 0.00287
308.15 K, x1 = 0.243	–	0.293 ± 0.00335
308.15 K, x1 = 0.293	–	0.329 ± 0.00359
308.15 K, x1 = 0.342	–	0.357 ± 0.00382
308.15 K, x1 = 0.392	–	0.379 ± 0.00406
308.15 K, x1 = 0.441	–	0.393 ± 0.00406
308.15 K, x1 = 0.49	–	0.4 ± 0.0043
308.15 K, x1 = 0.541	–	0.4 ± 0.0043
308.15 K, x1 = 0.592	–	0.392 ± 0.00406
308.15 K, x1 = 0.643	–	0.376 ± 0.00406
308.15 K, x1 = 0.693	–	0.354 ± 0.00382
308.15 K, x1 = 0.743	–	0.324 ± 0.00359
308.15 K, x1 = 0.793	–	0.283 ± 0.00311
308.15 K, x1 = 0.897	–	0.169 ± 0.00229
308.15 K, x1 = 0.949	–	0.0908 ± 0.00196

COC(C)=O [methyl ethanoate] + CCCCCO
excess molar enthalpy [kcal/mol]
Conditions	298.15 K	308.15 K
5000 kPa, x1 = 0.049	0.0821 ± 0.00182	–
5000 kPa, x1 = 0.1	0.157 ± 0.00227	–
5000 kPa, x1 = 0.15	0.22 ± 0.00263	–
5000 kPa, x1 = 0.2	0.273 ± 0.00311	–
5000 kPa, x1 = 0.249	0.314 ± 0.00359	–
5000 kPa, x1 = 0.299	0.349 ± 0.00382	–
5000 kPa, x1 = 0.349	0.375 ± 0.00406	–
5000 kPa, x1 = 0.401	0.394 ± 0.0043	–
5000 kPa, x1 = 0.451	0.404 ± 0.0043	–
5000 kPa, x1 = 0.5	0.407 ± 0.0043	–
5000 kPa, x1 = 0.55	0.403 ± 0.0043	–
5000 kPa, x1 = 0.599	0.391 ± 0.0043	–
5000 kPa, x1 = 0.65	0.371 ± 0.00406	–
5000 kPa, x1 = 0.749	0.31 ± 0.00335	–
5000 kPa, x1 = 0.801	0.264 ± 0.00287	–
5000 kPa, x1 = 0.85	0.213 ± 0.00237	–
5000 kPa, x1 = 0.901	0.15 ± 0.00174	–
5000 kPa, x1 = 0.95	0.08 ± 0.00103	–
10000 kPa, x1 = 0.049	0.0827 ± 0.00184	–
10000 kPa, x1 = 0.051	–	0.0858 ± 0.00194
10000 kPa, x1 = 0.099	0.158 ± 0.00227	0.162 ± 0.00232
10000 kPa, x1 = 0.15	0.221 ± 0.00263	0.223 ± 0.00263
10000 kPa, x1 = 0.199	0.273 ± 0.00311	0.281 ± 0.00311
10000 kPa, x1 = 0.248	0.315 ± 0.00359	–
10000 kPa, x1 = 0.251	–	0.325 ± 0.00359
10000 kPa, x1 = 0.299	0.35 ± 0.00382	0.361 ± 0.00382
10000 kPa, x1 = 0.348	0.375 ± 0.00406	–
10000 kPa, x1 = 0.351	–	0.388 ± 0.00406
10000 kPa, x1 = 0.4	0.394 ± 0.0043	0.406 ± 0.0043
10000 kPa, x1 = 0.45	0.404 ± 0.0043	0.418 ± 0.0043
10000 kPa, x1 = 0.499	0.407 ± 0.0043	0.419 ± 0.0043
10000 kPa, x1 = 0.55	0.403 ± 0.0043	0.415 ± 0.0043
10000 kPa, x1 = 0.599	0.391 ± 0.00406	0.402 ± 0.0043
10000 kPa, x1 = 0.649	0.371 ± 0.00406	0.382 ± 0.00406
10000 kPa, x1 = 0.701	–	0.351 ± 0.00382
10000 kPa, x1 = 0.748	0.309 ± 0.00335	–
10000 kPa, x1 = 0.752	–	0.316 ± 0.00359
10000 kPa, x1 = 0.8	0.263 ± 0.00311	0.272 ± 0.00311
10000 kPa, x1 = 0.85	0.21 ± 0.00263	0.22 ± 0.00263
10000 kPa, x1 = 0.901	0.146 ± 0.00217	0.152 ± 0.00225
10000 kPa, x1 = 0.95	0.0747 ± 0.00177	0.0782 ± 0.00184
